One assay has as its target T1, ABCB4 WT (Homo sapiens, UniProt P21439).
T1 construct: expressed in transfected cells
In words: ABCB4 WT assay: HiBit protein expression. Type of assay: cell-based. Particulars: HEK-293 cells stably expressing HiBit-tagged ABCB4 WT; 24 h treatment; top concentration 30 μM; read-out: ABCB4 WT EC50, Emax. The source says:
To assess activity against ABCB4, compounds were screened in an assay measuring protein expression, using cells transfected with cDNA encoding HiBit-tagged ABCB4 wild-type.
(§1) Described here is an assay for measuring the expression of the wild type of human ABCB4 (henceforth referred to as ABCB4 WT) and the use of this assay to measure the efficacy of compounds to increase the expression of ABCB4 WT. The assay was designed to characterize the efficacy and potency of compounds to increase the expression of ABCB4 WT by calculating an Emax and EC50 value. HEK-293 cells stably expressing ABCB4 WT (HEK-293/ABCB4 WT) were used for this assay and were maintained at 37° C. (5% CO2, humidified) in Dulbecco's Modified Eagle Medium (DMEM, Gibco product #12100) supplemented with 10% fetal bovine serum (Biosera product #FB-1058/500), 1% PenStrep (HDB product #15140-122), and 0.5 mg/mL puromycin (Gibco product #A11138-03). For the assay, the HEK-293/ABCB4 WT cells were seeded in white/opaque 384-well plates (Corning product #3570) at 10,000 cells/well in 20 μl growth medium and allowed to settle for 4 hours at 37° C. (5% CO2, humidified). Compound serial dilutions are prepared in DMSO as three hundred times (333×) the final concentration and using a dilution factor of 3 using Bravo (Agilent). After the four-hour incubation period, 60 nL of DMSO solutions are transferred to the assay plate.
(§2) Dose response curves include eleven doses with the top final concentration at 30 μM in 0.3% DMSO. Liquid handling is performed with ECHO 550 Acoustic Liquid Handler (Labcyte). After addition of compound treatment, cells are incubated for 24 hours at 37° C. (5% CO2, humidified). After the 24-hour treatment, plates are allowed to equilibrate to room temperature for 10 minutes. Using Dragonfly Automated Liquid Handler (TTP LabTech), 20 μl of HiBit lytic assay reagent (Promega, product #N3040), which is prepared according to manufacturer's instructions, is added to each well. The plates are rotated at room temperature for 2 minutes and incubated for 1 hour at 25° C. before luminescent signal is acquired using an EnVision Multimode Plate Reader (PerkinElmer).
Results are presented below in Table 5 for ABCB4 WT.

A further assay has as its target T2, ABCD2 WT (Homo sapiens, UniProt Q9UBJ2).
T2 construct: expressed in transfected cells
T2 sequence (Q9UBJ2 1-740): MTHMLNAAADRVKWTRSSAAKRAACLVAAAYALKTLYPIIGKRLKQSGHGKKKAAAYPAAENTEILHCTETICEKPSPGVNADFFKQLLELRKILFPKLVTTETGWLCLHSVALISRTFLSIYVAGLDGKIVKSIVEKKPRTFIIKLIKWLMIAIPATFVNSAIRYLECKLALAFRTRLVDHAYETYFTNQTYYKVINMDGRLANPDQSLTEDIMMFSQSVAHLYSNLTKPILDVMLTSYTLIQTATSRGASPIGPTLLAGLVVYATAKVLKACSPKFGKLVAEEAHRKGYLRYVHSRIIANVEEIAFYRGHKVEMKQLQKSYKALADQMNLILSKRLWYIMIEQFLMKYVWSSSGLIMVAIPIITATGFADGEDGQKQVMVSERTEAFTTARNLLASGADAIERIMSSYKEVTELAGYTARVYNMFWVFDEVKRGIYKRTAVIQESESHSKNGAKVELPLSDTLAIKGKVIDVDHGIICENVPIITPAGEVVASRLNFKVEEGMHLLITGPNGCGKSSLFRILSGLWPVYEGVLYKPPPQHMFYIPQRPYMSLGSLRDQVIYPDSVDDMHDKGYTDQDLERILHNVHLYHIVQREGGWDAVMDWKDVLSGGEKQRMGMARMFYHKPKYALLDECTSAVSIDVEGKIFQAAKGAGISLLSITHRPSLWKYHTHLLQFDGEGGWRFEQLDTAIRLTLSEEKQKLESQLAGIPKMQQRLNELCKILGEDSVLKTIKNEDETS
As to the kind of experiment: D2 correction dose-response assay: ABCD2 WT HiBit protein expression. Type of assay: cell-based. Particulars: HEK-293/ABCD2 WT cells, 24 hours treatment, HiBit luminescence; class combines EC50 and Mean MaxAct (fold); read-out: ABCD2 WT EC50, Emax. On the procedure:
Exemplary compounds were evaluated in a D2 correction dose-response assay.
as §1, with “To assess activity against ABCD2, the compounds were screened in an assay measuring protein expression, using cells transfected with cDNA encoding HiBit-tagged ABCD2 wild-type. Here we describe” for “Described here is”, “ABCD2” for “ABCB4”, “(HEK-293/ABCD2” for “(HEK-293/ABCB4”, “HEK-293/ABCD2” for “HEK-293/ABCB4”
as §2
Background: HiBiT is a short tag that completes a luciferase, so light tracks the accessible tagged protein.

One may read the EC50 as the concentration giving half of the maximal effect.

T1 sequence (P21439 whole entry): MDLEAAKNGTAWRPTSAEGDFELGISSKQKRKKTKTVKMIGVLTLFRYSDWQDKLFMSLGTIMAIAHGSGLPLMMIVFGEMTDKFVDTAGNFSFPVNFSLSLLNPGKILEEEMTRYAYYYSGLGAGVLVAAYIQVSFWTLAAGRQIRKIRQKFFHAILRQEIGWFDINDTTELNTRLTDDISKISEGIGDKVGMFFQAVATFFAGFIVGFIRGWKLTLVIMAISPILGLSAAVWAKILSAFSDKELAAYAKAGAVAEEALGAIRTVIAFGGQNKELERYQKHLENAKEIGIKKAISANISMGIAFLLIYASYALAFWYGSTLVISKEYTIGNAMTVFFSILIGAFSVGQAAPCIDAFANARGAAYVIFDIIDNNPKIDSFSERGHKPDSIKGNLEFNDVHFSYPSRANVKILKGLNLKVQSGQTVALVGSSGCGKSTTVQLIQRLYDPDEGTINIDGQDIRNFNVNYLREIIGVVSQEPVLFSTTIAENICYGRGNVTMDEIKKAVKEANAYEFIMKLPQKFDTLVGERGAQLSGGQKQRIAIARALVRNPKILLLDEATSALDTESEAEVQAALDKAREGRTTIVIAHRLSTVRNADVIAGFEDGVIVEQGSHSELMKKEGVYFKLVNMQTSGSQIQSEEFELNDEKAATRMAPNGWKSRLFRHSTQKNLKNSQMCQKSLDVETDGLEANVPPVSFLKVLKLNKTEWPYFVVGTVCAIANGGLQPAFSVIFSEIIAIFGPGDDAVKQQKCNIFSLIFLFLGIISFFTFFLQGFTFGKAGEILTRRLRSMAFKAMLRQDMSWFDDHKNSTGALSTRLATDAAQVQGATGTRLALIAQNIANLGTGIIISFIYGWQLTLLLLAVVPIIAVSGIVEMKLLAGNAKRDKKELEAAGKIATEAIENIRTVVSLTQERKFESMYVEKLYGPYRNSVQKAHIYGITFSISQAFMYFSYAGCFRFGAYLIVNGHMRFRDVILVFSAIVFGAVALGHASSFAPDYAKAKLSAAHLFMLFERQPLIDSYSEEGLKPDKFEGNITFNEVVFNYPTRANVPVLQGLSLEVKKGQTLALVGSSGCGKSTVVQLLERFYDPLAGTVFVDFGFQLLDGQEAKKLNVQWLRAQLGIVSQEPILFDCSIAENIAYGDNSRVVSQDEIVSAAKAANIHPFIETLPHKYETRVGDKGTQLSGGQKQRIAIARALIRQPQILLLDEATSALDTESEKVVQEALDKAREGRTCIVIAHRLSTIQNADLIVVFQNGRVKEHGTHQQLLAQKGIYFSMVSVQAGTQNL

Consider `Cc1cc(C(F)(F)F)nc(C2CC2)c1Oc1nc(-c2cncc(C#N)c2)ccc1S(=O)(=O)N(C)C` [Compound I-291], for which the EC50 at ABCB4 WT is under 1 µM; at ABCD2 WT it was 1 to 10 µM.

`Cc1nc(C(F)(F)F)nc(C2CC2)c1Oc1nc(-c2cncc(C#N)c2)ccc1S(=O)(=O)NC1CC1` [Compound I-292]: the EC50 on ABCB4 WT and at ABCD2 WT was 1 to 10 µM throughout.

With `CNS(=O)(=O)c1ccc(-c2cncc(C#N)c2)nc1Oc1c(C)cc(C(F)(F)F)nc1C1CC1` [Compound I-293], the EC50 was under 1 µM at ABCB4 WT and 1 to 10 µM on ABCD2 WT.

Regarding `Cc1cc(C(F)(F)F)nc(C2CC2)c1Oc1nc(-c2cncc(C#N)c2)ccc1S(=O)(=O)Nc1cccnc1` [Compound I-294], the EC50 on ABCB4 WT is 10 to 25 µM; at ABCD2 WT, under 1 µM.

In the case of `Cc1cc(C(F)(F)F)nc(C2CC2)c1Oc1nc(-c2cccc(C#N)c2)ccc1S(=N)(=O)C1CC1` (stereo not shown) [Compound I-295], the EC50 on ABCB4 WT is at least 25 µM; on ABCD2 WT it was 10 to 25 µM.

For the compound `Cc1cc(C(F)(F)F)nc(C2CC2)c1Oc1nc(-c2cncc(C#N)c2)ccc1S(=N)(=O)c1cccnn1` (stereo not shown) [Compound I-296], the EC50 at ABCB4 WT and at ABCD2 WT was under 1 µM in each case.

In the case of `Cc1cc(C(F)(F)F)nc(C2CC2)c1Oc1nc(-c2cncc(C#N)c2)ccc1S(=N)(=O)c1cnccn1` (stereo not shown) [Compound I-297], the EC50 at ABCB4 WT and at ABCD2 WT was 1 to 10 µM each time.

Regarding `CNS(=O)(=O)c1ccc(-c2cncc(C#N)c2)nc1Oc1c(C)cc(C2CC2)nc1C1CC1` [Compound I-298], the EC50 on ABCB4 WT is at least 25 µM; on ABCD2 WT, 1 to 10 µM.

Turning to `Cc1sc(C2CC2)nc1Oc1nc(-c2cncc(C#N)c2)ccc1NS(C)(=O)=O` [Compound I-299], the EC50 at ABCB4 WT and at ABCD2 WT was under 1 µM throughout.

Regarding `Cc1nc(Oc2nc(-c3cncc(C#N)c3)ccc2NS(C)(=O)=O)c(C2CC2)s1` [Compound I-300], the EC50 at ABCB4 WT and at ABCD2 WT was under 1 µM in each case.

Regarding `Cc1cc(C(F)(F)F)nc(C2CC2)c1Oc1nc(-c2cncc(C#N)c2)ccc1S(=N)(=O)C1CCOCC1` (stereo not shown) [Compound I-301], the EC50 was at least 25 µM at ABCB4 WT and 10 to 25 µM at ABCD2 WT.

On to `Cc1cc(C(F)(F)F)nc(C2CC2)c1Oc1nc(-c2cncc(C#N)c2)ccc1S(=N)(=O)c1ccccn1` (stereo not shown) [Compound I-302], for which the EC50 on ABCB4 WT and at ABCD2 WT was 10 to 25 µM each time.

As for `Cc1nc(C(F)(F)F)nc(C2CC2)c1Oc1nc(-c2cncc(C#N)c2)ccc1S(=N)(=O)C1CC1` (stereo not shown) [Compound I-303], the figures for the EC50 at ABCB4 WT and on ABCD2 WT were at least 25 µM and over 25 µM, respectively.

As to `Cc1cc(C(F)(F)F)nc(C2CC2)c1Oc1nc(-c2cncc(C#N)c2)ccc1S(=N)(=O)c1cccnc1` (stereo not shown) [Compound I-304], the results for the EC50 at ABCB4 WT and on ABCD2 WT were 1 to 10 µM and under 1 µM, respectively.

On to `Cc1cc(C(F)(F)F)nc(C2CC2)c1Oc1nc(-c2cncc(C#N)c2)ccc1S(=O)(=O)NC1COC1` [Compound I-305], for which the EC50 on ABCB4 WT is at least 25 µM; at ABCD2 WT, 1 to 10 µM.

Consider `Cc1cc(C(F)(F)F)nc(C2CC2)c1Oc1nc(-c2cncc(C#N)c2)ccc1S(=O)(=O)NC1CCOCC1` [Compound I-306], for which the EC50 at ABCB4 WT is at least 25 µM; at ABCD2 WT it was 1 to 10 µM.

Regarding `Cc1cc(C)c(Oc2nc(-c3c[nH]c(=O)c(C#N)c3)ccc2NS(C)(=O)=O)c(C)n1` [Compound I-307], the EC50 on ABCB4 WT was at least 25 µM; on ABCD2 WT, 1 to 10 µM.

Take `CNS(=O)(=O)c1ccc(-c2cncc(C#N)c2)nc1Oc1nc(C2CC2)sc1C` [Compound I-308]: the figures for the 50% effective concentration (EC50) on ABCB4 WT and on ABCD2 WT were under 25 µM and over 25 µM, respectively.

As to `Cc1nc(C(F)(F)F)nc(C2CC2)c1Oc1nc(-c2cncc(C#N)c2)ccc1S(=O)(=O)Nc1cnn(C)c1` [Compound I-309], the results for the EC50 at ABCB4 WT and at ABCD2 WT were under 1 µM and 1 to 10 µM, respectively.

As to `Cc1nc(C(F)(F)F)nc(C2CC2)c1Oc1nc(-c2cncc(C#N)c2)ccc1S(=O)(=O)Nc1cccnc1` [Compound I-310], the EC50 on ABCB4 WT was at least 25 µM; on ABCD2 WT, 1 to 10 µM.

`Cc1cc(C)[n+]([O-])c(C)c1Oc1nc(-c2cncc(C#N)c2)ccc1NS(C)(=O)=O` [Compound I-311]: the EC50 at ABCB4 WT and at ABCD2 WT was 1 to 10 µM throughout.

Take `CNS(=O)(=O)c1ccc(-c2cncc(C#N)c2)nc1Oc1nc(C)sc1C1CC1` [Compound I-312]: the EC50 at ABCB4 WT was at least 25 µM; at ABCD2 WT, over 25 µM.

`CNS(=O)(=O)c1ccc(-c2cncc(C#N)c2)nc1Oc1c(C)nc(C(F)F)nc1C1CC1` [Compound I-313]: the concentration for a half-maximal effect (EC50) on ABCB4 WT is 1 to 10 µM; at ABCD2 WT it was over 25 µM.

As to `Cc1nc(C(F)F)nc(C2CC2)c1Oc1nc(-c2cncc(C#N)c2)ccc1S(=O)(=O)NC1CC1` [Compound I-314], the EC50 was 1 to 10 µM on ABCB4 WT and over 25 µM on ABCD2 WT.

With `CNS(=O)(=O)c1ccc(-c2cncc(C#N)c2)nc1Oc1c(C)nc(C(F)(F)F)nc1C1CC1` [Compound I-315], the half-maximal effective concentration (EC50) is at least 25 µM at ABCB4 WT and 10 to 25 µM on ABCD2 WT.

On to `Cc1cc(C)c(Oc2nc(-c3cccc(C#N)c3)ccc2S(=N)(=O)C2CC2)c(C)n1` (stereo not shown) [Compound I-316], for which the EC50 fell in the range of 1 to 10 µM on ABCB4 WT and 10 to 25 µM at ABCD2 WT.

For the origin of these results see US20250228835A1, “PYRIDINYLOXYPYRIDINES AND RELATED COMPOUNDS AND THEIR USE IN TREATING MEDICAL CONDITIONS” (Rectify Pharmaceuticals, Inc., priority 2024, published 2025).
